Measured values from article PMC12136037, “Type II kinase inhibitors that target Parkinson’s disease–associated LRRK2” (Science Advances, 2025).
“And” between values parts separate entries of the source, which are not always exact repeats. Identical values can stand only once. Each block holds one compound with its values, some of them ahead of it.

Legend:
LRRK2^RCKW = molecular target: T1, LRRK2^RCKW (Homo sapiens, UniProt Q5S007); assay: Biochemical LRRK2 activity assay (PhosphoSense, AssayQuant SOX peptide AQT0615); settings: for IC50: LRRK2^RCKW kinase activity, in vitro; for normalized response (LRRK2 activity): normalized to 0% (no kinase) and 100% (no inhibitor) control, two singlicate columns per compound
T1 construct: LRRK2 R1327 to E2527; His6-Z-tag (TEV cleavable) (N, cleaved yes); host or cells: Sf9 insect cells (baculovirus)
T1 sequence (Q5S007 1327-2527): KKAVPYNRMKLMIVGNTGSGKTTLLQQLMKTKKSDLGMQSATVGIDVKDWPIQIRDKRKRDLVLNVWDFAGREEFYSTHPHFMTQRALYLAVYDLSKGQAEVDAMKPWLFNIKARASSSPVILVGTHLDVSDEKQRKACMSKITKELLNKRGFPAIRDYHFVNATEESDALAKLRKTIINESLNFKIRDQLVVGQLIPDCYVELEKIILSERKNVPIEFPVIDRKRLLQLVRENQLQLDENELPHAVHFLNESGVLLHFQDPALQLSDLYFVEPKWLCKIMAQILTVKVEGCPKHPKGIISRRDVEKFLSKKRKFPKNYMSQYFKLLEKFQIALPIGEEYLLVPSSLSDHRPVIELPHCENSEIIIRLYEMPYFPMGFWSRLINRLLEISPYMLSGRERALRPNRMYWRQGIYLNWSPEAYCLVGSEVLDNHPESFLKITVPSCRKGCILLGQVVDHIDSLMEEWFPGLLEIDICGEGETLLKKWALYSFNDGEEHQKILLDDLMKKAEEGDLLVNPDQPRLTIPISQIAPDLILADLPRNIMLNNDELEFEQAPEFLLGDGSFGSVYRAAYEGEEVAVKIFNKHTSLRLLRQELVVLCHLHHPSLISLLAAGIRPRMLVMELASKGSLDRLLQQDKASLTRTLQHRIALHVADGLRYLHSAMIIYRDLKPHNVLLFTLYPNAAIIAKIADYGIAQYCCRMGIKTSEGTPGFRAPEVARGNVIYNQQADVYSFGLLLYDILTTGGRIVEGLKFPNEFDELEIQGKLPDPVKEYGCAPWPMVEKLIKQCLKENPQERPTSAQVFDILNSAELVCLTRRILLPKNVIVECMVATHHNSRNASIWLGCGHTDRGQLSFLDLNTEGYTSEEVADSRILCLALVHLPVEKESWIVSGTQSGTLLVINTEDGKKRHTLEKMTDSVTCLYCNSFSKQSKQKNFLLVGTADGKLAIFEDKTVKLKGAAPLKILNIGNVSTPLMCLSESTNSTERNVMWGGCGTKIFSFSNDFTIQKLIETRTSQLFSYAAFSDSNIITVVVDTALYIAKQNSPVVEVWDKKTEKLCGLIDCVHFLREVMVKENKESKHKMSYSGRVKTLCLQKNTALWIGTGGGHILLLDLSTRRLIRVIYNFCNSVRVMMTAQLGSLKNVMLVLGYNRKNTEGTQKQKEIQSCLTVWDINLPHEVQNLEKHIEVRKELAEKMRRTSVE
How it was run: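 Controls lacked protein and compound (0%) or compound only (100%). IC50 derived by nonlinear regression of normalized response versus log[inhibitor].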

[1] = molecular target: T2, ~100 representative kinases (Homo sapiens, UniProt P22607); assay: DSF 100 kinase selectivity screen; type: binding; settings: protein FGFR3; average of three replicates;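 further: compound tested at 20 µM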
T2 construct: Recombinant protein kinase domains with a concentration of 2 μM
How it was run: (§1)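 Each kinase domain, at 2 μM, is mixed with 20 μM test compound and SYPRO Orange in Hepes (20 mM, pH 7.5) with 500 mM NaCl. Temperature is then raised at 3°C/min and fluorescence-monitored unfolding yields the melting temperature change, ΔTm in degrees Celsius.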

[2] = molecular target: T3, ~100 representative kinases (Homo sapiens, UniProt Q96GD4); assay: DSF 100 kinase selectivity screen; type: binding; settings: Protein AURKB; average of three replicates;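 further: compound tested at 20 µM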
T3 construct: Recombinant protein kinase domains with a concentration of 2 μM
How it was run: as §1

T3 sequence (Q96GD4 whole entry, the tested form may be a part): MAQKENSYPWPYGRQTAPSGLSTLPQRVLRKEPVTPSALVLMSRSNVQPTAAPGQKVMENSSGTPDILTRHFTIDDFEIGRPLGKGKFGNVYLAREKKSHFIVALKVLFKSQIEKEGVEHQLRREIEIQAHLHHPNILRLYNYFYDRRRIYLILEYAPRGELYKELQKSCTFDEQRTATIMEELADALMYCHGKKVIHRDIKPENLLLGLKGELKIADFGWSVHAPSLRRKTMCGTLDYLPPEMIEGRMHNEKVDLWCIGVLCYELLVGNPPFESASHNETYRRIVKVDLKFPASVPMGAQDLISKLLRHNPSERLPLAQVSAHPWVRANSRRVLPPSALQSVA
T2 sequence (P22607 23-806): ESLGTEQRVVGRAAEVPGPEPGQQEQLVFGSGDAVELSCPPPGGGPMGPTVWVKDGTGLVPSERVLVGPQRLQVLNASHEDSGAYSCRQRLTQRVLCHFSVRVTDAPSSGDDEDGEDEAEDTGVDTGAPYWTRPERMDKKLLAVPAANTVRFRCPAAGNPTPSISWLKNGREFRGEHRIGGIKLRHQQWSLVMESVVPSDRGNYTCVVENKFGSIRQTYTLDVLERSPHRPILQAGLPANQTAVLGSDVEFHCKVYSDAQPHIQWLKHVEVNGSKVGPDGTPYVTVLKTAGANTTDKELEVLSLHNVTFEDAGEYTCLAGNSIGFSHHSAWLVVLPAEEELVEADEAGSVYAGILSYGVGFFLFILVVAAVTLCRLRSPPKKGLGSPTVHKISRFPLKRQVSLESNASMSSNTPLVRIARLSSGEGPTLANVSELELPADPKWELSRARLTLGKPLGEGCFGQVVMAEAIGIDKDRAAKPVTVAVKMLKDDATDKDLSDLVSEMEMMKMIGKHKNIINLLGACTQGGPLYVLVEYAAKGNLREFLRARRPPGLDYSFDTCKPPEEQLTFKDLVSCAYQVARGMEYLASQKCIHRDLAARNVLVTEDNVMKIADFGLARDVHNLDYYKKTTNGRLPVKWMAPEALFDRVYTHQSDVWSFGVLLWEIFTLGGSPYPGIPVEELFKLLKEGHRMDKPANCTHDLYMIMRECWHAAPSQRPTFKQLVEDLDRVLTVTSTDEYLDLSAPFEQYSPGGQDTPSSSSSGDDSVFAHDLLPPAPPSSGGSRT

Structure (SMILES): O=C(Nc1cccc(-c2c[nH]c3ncnc(N4CCOCC4)c23)c1)C1(C(=O)Nc2cc(Br)c(F)cc2F)CC1 [Compound 25]
IC50 (LRRK2^RCKW): 818 ± 56 nM | normalized response (LRRK2 activity) (LRRK2^RCKW; log[inhibitor(mol)] -4.82391): 4.179% and 4.042% | normalized response (LRRK2 activity) (LRRK2^RCKW; log[inhibitor(mol)] -5.12494): 6.886% and 2.089% | normalized response (LRRK2 activity) (LRRK2^RCKW; log[inhibitor(mol)] -5.60206): 16.9372% and 25.3493% | normalized response (LRRK2 activity) (LRRK2^RCKW; log[inhibitor(mol)] -6.30103): 61.5503% and 64.2768% | normalized response (LRRK2 activity) (LRRK2^RCKW; log[inhibitor(mol)] -6.90309): 87.889% and 62.9679% | normalized response (LRRK2 activity) (LRRK2^RCKW; log[inhibitor(mol)] -7.30103): 95.1314% and 96.4468% | normalized response (LRRK2 activity) (LRRK2^RCKW; log[inhibitor(mol)] -7.60206): 95.9663% and 100.454% | normalized response (LRRK2 activity) (LRRK2^RCKW; log[inhibitor(mol)] -8.09691): 95.3684% and 96.0989% | normalized response (LRRK2 activity) (LRRK2^RCKW; log[inhibitor(mol)] -8.61979): 98.0471% and 98.2841% | normalized response (LRRK2 activity) (LRRK2^RCKW; log[inhibitor(mol)] -9.09691): 97.884% and 98.6428% | normalized response (LRRK2 activity) (LRRK2^RCKW; log[inhibitor(mol)] -9.39794): 99.7517% and 70.9452% | dTm [1]: 2.90 K | dTm [2]: -2.86 K

Structure (SMILES): Cc1ccc(C(=O)Nc2ccc(CN3CCN(C)CC3)c(C(F)(F)F)c2)cc1C#Cc1c[nH]c2ncnc(N3CCOCC3)c12 [Compound 1]
IC50 (LRRK2^RCKW): 756 ± 20 nM | normalized response (LRRK2 activity) (LRRK2^RCKW; log[inhibitor(mol)] -5.12494): 7.718% and 4.844% | normalized response (LRRK2 activity) (LRRK2^RCKW; log[inhibitor(mol)] -5.60206): 24.5327% and 23.4304% | normalized response (LRRK2 activity) (LRRK2^RCKW; log[inhibitor(mol)] -6.30103): 59.5875% and 59.3462% | normalized response (LRRK2 activity) (LRRK2^RCKW; log[inhibitor(mol)] -6.90309): 87.2332% and 86.1364% | normalized response (LRRK2 activity) (LRRK2^RCKW; log[inhibitor(mol)] -7.30103): 105.83% and 97.719% | normalized response (LRRK2 activity) (LRRK2^RCKW; log[inhibitor(mol)] -7.60206): 93.8691% and 88.2314% | normalized response (LRRK2 activity) (LRRK2^RCKW; log[inhibitor(mol)] -8.09691): 93.7155% and 94.1323% | normalized response (LRRK2 activity) (LRRK2^RCKW; log[inhibitor(mol)] -8.61979): 97.5599% and 105.43% | normalized response (LRRK2 activity) (LRRK2^RCKW; log[inhibitor(mol)] -9.09691): 94.6588% and 101.816% | normalized response (LRRK2 activity) (LRRK2^RCKW; log[inhibitor(mol)] -9.39794): 98.0974% and 115.57% | dTm [1]: 4.20 K | dTm [2]: 1.01 K

Structure (SMILES): O=C(Nc1cccc(-c2c[nH]c3ncnc(N4CCOCC4)c23)c1)C1(C(=O)Nc2cccc3c2CCC3)CC1 [Compound 11]
IC50 (LRRK2^RCKW): 989 ± 32 nM | normalized response (LRRK2 activity) (LRRK2^RCKW; log[inhibitor(mol)] -4.82391): 10.5992% and 8.534% | normalized response (LRRK2 activity) (LRRK2^RCKW; log[inhibitor(mol)] -5.12494): 11.3407% and 2.1893% | normalized response (LRRK2 activity) (LRRK2^RCKW; log[inhibitor(mol)] -5.60206): 26.743% and 30.013% | normalized response (LRRK2 activity) (LRRK2^RCKW; log[inhibitor(mol)] -6.30103): 46.8199% and 60.7415% | normalized response (LRRK2 activity) (LRRK2^RCKW; log[inhibitor(mol)] -6.90309): 90.6286% and 91.37% | normalized response (LRRK2 activity) (LRRK2^RCKW; log[inhibitor(mol)] -7.30103): 100.861% and 98.8124% | normalized response (LRRK2 activity) (LRRK2^RCKW; log[inhibitor(mol)] -7.60206): 104.989% and 102.561% | normalized response (LRRK2 activity) (LRRK2^RCKW; log[inhibitor(mol)] -8.09691): 99.7669% and 103.043% | normalized response (LRRK2 activity) (LRRK2^RCKW; log[inhibitor(mol)] -8.61979): 100.861% and 99.0776% | normalized response (LRRK2 activity) (LRRK2^RCKW; log[inhibitor(mol)] -9.09691): 103.172% and 100.678% | normalized response (LRRK2 activity) (LRRK2^RCKW; log[inhibitor(mol)] -9.39794): 101.258% and 104.313% | dTm [1]: 2.85 K | dTm [2]: -0.43 K

The remaining lines, values ahead:

IC50 (LRRK2^RCKW): 2150 ± 76 nM | normalized response (LRRK2 activity) (LRRK2^RCKW; log[inhibitor(mol)] -4.82391): 17.1176% and 19.6941% | normalized response (LRRK2 activity) (LRRK2^RCKW; log[inhibitor(mol)] -5.12494): 21.5574% and 22.3836% | normalized response (LRRK2 activity) (LRRK2^RCKW; log[inhibitor(mol)] -5.60206): 47.7852% and 45.6806% | normalized response (LRRK2 activity) (LRRK2^RCKW; log[inhibitor(mol)] -6.30103): 71.6605% and 77.9071% | normalized response (LRRK2 activity) (LRRK2^RCKW; log[inhibitor(mol)] -6.90309): 94.0943% and 97.1643% | normalized response (LRRK2 activity) (LRRK2^RCKW; log[inhibitor(mol)] -7.30103): 97.7557% and 95.1358% | normalized response (LRRK2 activity) (LRRK2^RCKW; log[inhibitor(mol)] -7.60206): 95.6902% and 98.0188% | normalized response (LRRK2 activity) (LRRK2^RCKW; log[inhibitor(mol)] -8.09691): 96.4251% and 96.973% | normalized response (LRRK2 activity) (LRRK2^RCKW; log[inhibitor(mol)] -8.61979): 102.476% and 68.784% | normalized response (LRRK2 activity) (LRRK2^RCKW; log[inhibitor(mol)] -9.09691): 101.485% and 101.404% | normalized response (LRRK2 activity) (LRRK2^RCKW; log[inhibitor(mol)] -9.39794): 101.487% and 73.6695% | dTm [1]: 1.74 K | dTm [2]: 4.75 K
Structure (SMILES): Cc1cc(NC(=O)C2(C(=O)Nc3ccc(F)cc3)CC2)cc(-c2c[nH]c3ncnc(N4CCOCC4)c23)c1 [Compound 6]

IC50 (LRRK2^RCKW): 134 ± 5 nM | normalized response (LRRK2 activity) (LRRK2^RCKW; log[inhibitor(mol)] -4.82391): 1.939% and 8.5359% | normalized response (LRRK2 activity) (LRRK2^RCKW; log[inhibitor(mol)] -5.12494): 9.123% and 11.3015% | normalized response (LRRK2 activity) (LRRK2^RCKW; log[inhibitor(mol)] -5.60206): 44.4326% and 42.5431% | normalized response (LRRK2 activity) (LRRK2^RCKW; log[inhibitor(mol)] -6.30103): 13.6454% and 21.2987% | normalized response (LRRK2 activity) (LRRK2^RCKW; log[inhibitor(mol)] -6.90309): 53.1512% and 54.1949% | normalized response (LRRK2 activity) (LRRK2^RCKW; log[inhibitor(mol)] -7.30103): 78.8268% and 70.6625% | normalized response (LRRK2 activity) (LRRK2^RCKW; log[inhibitor(mol)] -7.60206): 83.0818% and 80.8923% | normalized response (LRRK2 activity) (LRRK2^RCKW; log[inhibitor(mol)] -8.09691): 91.3569% and 90.9395% | normalized response (LRRK2 activity) (LRRK2^RCKW; log[inhibitor(mol)] -8.61979): 93.5464% and 85.6887% | normalized response (LRRK2 activity) (LRRK2^RCKW; log[inhibitor(mol)] -9.09691): 97.2382% and 103.098% | normalized response (LRRK2 activity) (LRRK2^RCKW; log[inhibitor(mol)] -9.39794): 97.1774% and 94.1421% | dTm [1]: 3.36 K | dTm [2]: 0.97 K
Structure (SMILES): O=C(Nc1cccc(-c2c[nH]c3ncnc(N4CCOCC4)c23)c1)C1(C(=O)Nc2ccc(F)c(Br)c2F)CC1 [Compound 26]
